Data taken from US10300052B2, “Methods for increasing CFTR activity” (THE UAB RESEARCH FOUNDATION, priority 2012, dated 2019).

Test system: porcine trachea CFTR−/−
Assay: μOCT imaging of airway epithelial function in porcine trachea, CFTR-/- animals
Conditions: sequential ivacaftor 10 μM, forskolin 100 nM, acetylcholine 100 μM in bath, 37° C. (FIG. 7G)
Text: FIGS. 7A-7H show the effects of CFTR activators on airway epithelial function in intact porcine trachea by μOCT. FIGS. 7A-7B show representative μOCT images for a CFTR−/− (FIG. 7A) and CFTR+/+ (FIG. 7B) animal. FIGS. 7C-7F, respectively, show ASL depth (FIG. 7C), PCL depth (FIG. 7D), CBF (FIG. 7E) and MCT (FIG. 7F) measurements derived from μOCT images from CFTR−/− and CFTR+/+ animals. FIGS. 7G and 7H show the response of epithelial functional parameters, namely ASL depth and MCT in CFTR−/− (FIG. 7G) and CFTR+/+(FIG. 7H) animals in response to sequential pharmacologic intervention by ivacaftor (10 μM), forskolin (100 nM) and acetylcholine (100 μM).
To further investigate the role of CFTR activators in modulating airway epithelial cell function, CFTR activators were studied in combination with porcine trachea. In this example, porcine trachea from animals having a mutated CFTR (CFTR (−/−) and from animals having a WT-CFTR (CFTR+/+) were evaluated for ASL depth, PCL depth, CBF and MCT. The results are shown in FIGS. 7A-7H.
FIGS. 7G and 7H show the response of epithelial functional parameters, namely ASL depth, CBF and MCT in CFTR−/− and CFTR+/+ animals in response to sequential pharmacologic intervention by ivacaftor (10 μM), forskolin (100 nM) and acetylcholine (100 μM); in this experiment, acetylcholine served as a positive control to induce glandular extrusion in CF tissue). In these experiments, agonists were added to the bath solution and all experiments were conducted under physiological conditions (37° C. and 100% humidity). […] In contrast to FIG. 7G, ASL depth, CBF and MCT were all increased in response to ivacaftor treatment in CFTR+/+ animals, consistent with the results described above for human tissue.
Normal piglet tracheas were obtained from Exemplar Genetics (Sioux Center, Iowa). Tissue were dissected from one-day-old piglets and shipped on wet ice in DMEM. A modified protocol based on airway tissue handling and preparation methods developed by Ballard et al. (Am J Physiol Lung Cell Mol Physiol 298: L270-276, 2010) was employed. Tracheas were immersed in 80 mL Ringer bicarbonate solution (KRB) baths at room temperature and slowly warmed to 37° C. After four hours of pretreatment, the tracheas were removed from the KRB. Accessible mucus and liquid were aspirated from the airway lumens and the tracheal ends were cannulated so that the serosal surface was bathed in KRB [29] without contacting the mucosal surface, as previously described (Ballard et al., Am J Physiol Lung Cell Mol Physiol 298: L270-276, 2010; Martens, et al., Am J Physiol Lung Cell Mol Physiol 301: L236-246, 2011). Tracheas were allowed to equilibrate in KRB bubbled with 95% 02 and 5% CO2 at 37° C. and the luminal side exposed to conditioned air at 100% humidity for 2 hours prior to mOCT imaging (Sleigh et al., Comp Biochem Physiol A Comp Physiol 94: 359-364, 1989).
The μOCT system is a spectral-domain OCT implementation with several improvements to standard OCT that yield high resolution in both lateral and axial directions. The general layout and axial resolution characterization have been described (Liu et al., PLOSOne, 8(1), E54473-2013). A super-continuum source (Fianium SC450) provides the high-bandwidth, short coherence length light necessary for high axial resolution ([…]). A typical OCT system includes an interferometer with the reference and sample arms intersecting at a beamsplitter. The beamsplitter is replaced in μOCT with a 45 degree rod mirror, which apodizes the sample beam by introducing a circular obscuration in the center to achieve a balance of good lateral resolution (2 μm) and long depth of focus (0.2 mm). Custom software is employed to control the galvanometer scanning motors while acquiring spectral data from the line camera. […]

C=C[C@@]1(C)CC(=O)[C@]2(O)[C@@]3(C)[C@@H](O)CCC(C)(C)[C@@H]3[C@H](O)[C@H](OC(C)=O)[C@@]2(C)O1 [forskolin]
no response: ASL depth response | CBF response | MCT response
